Molecules are shown by their SMILES.

Data set [1] deals with T1, human H4 receptor (Homo sapiens, UniProt Q9H3N8).
T1 construct: expressed in transfected cells
As to the kind of experiment: [3H]Histamine binding on membranes of CHO cells stably expressing human H4 receptor. In a few lines:
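Nonspecific signal was taken as that remaining with 10 μM JNJ 7777120 present. Assays contained 20 μg CHO-derived hH4 membrane protein in Tris/HCl–EDTA buffer (pH 7.4) and were terminated on polyethyleneimine-soaked filters, with bound tritium quantified by scintillation.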

T1 sequence (Q9H3N8 whole entry): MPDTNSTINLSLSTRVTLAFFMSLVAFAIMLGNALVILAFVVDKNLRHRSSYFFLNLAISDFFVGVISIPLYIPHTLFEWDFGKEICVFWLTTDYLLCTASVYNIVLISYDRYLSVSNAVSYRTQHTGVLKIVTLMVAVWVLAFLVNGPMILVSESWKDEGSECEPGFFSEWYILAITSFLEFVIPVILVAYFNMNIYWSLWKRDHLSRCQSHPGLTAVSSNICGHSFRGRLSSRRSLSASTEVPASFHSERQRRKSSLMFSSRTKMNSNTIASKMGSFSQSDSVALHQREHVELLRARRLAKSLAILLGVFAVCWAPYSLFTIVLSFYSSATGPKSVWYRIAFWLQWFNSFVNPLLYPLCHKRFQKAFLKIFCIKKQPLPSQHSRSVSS

One may read the melting point as the temperature, or range, at which the solid turns liquid. For the compound `CN1CCC(OC(c2cccc(-c3ccccc3CO)c2)c2nc3ccccc3[nH]2)CC1` (stereo not drawn) [Example 123, {3′-[(1H-benzimidazol-2-yl)(1-methylpiperidin-4-yloxy)methyl]biphenyl-2-yl}methanol], the melting point was found to be 107 °C. Further, the Ki or IC50 activity class in data set [1] was < 1000 nM.

The compound `CCCNC(=O)c1cccc(C(OC2CCN(C)CC2)c2nc3ccccc3s2)c1` (stereo not drawn) [Example 220, 3-[benzothiazol-2-yl(1-methylpiperidin-4-yloxy)methyl]-N-propylbenzamide] came in with a melting point of 60 °C. The Ki or IC50 activity class in data set [1] was < 30 nM.

In turn, `CN1CCC(OC(c2nc3ccccc3[nH]2)c2cc(Cc3ccccc3)ccc2O)CC1` (stereo not drawn) [Example 596] returned a melting point of 120 °C. Moreover, the Ki or IC50 activity class in data set [1] was < 30 nM.

On to `CN1CCC(OC(c2nc3ccccc3[nH]2)c2cc(SCCF)ccc2O)CC1` (stereo not drawn) [Example 614], for which the melting point turned out to be 127 °C. The Ki or IC50 activity class in data set [1] is < 30 nM.

Take `Cc1cc(F)c(O)c(C(OC2CCN(C)CC2)c2nc3ccccc3[nH]2)c1` (stereo not drawn) [Example 595]: the melting point stood at 144 °C. The Ki or IC50 activity class in data set [1] was < 300 nM.

`CN1CCC(OC(c2cccc(I)c2)c2nc3ccccc3[nH]2)CC1` (stereo not drawn) [Example 51, 2-[(3-iodophenyl)(1-methylpiperidin-4-yloxy)methyl]-1H-benzimidazole] displayed a melting point of 173.5 °C. Besides, in data set [1], the Ki or IC50 activity class is < 30 nM.

In turn, `Cc1ccc(C(OC2CCN(C)CC2)c2nc3ccccc3[nH]2)c(C)c1` (stereo not drawn) [Example 541] showed a melting point of 120 °C. The Ki or IC50 activity class in data set [1] is < 30 nM.

Compound `CN1CCC(OC(c2nc3ccccc3[nH]2)c2cc(F)cc(F)c2O)CC1` (stereo not drawn) [Example 579] displayed a melting point of 142 °C. In data set [1], the Ki or IC50 activity class is < 1000 nM.

Take `CN1CCC(OC(c2cccc(C#CCCCO)c2)c2nc3ccccc3[nH]2)CC1` (stereo not drawn) [Example 192, 5-{3-[(1H-benzimidazol-2-yl)(1-methylpiperidin-4-yloxy)methyl]phenyl}pent-4-yn-1-ol]: the melting point is 85 °C. For the same compound, the Ki or IC50 activity class in data set [1] was < 300 nM.

`CC(C)COc1cccc(C(NC2CCN(C)CC2)c2nc3ccccc3[nH]2)c1` (stereo not drawn) [Example 67, [(1H-benzimidazol-2-yl)(3-isobutoxyphenyl)methyl](1-methylpiperidin-4-yl)amine] registered a melting point of 99 °C. In addition, the Ki or IC50 activity class in data set [1] was < 30 nM.

`Cc1ccc(C(OC2CCN(C)CC2)c2nc3cc(F)ccc3[nH]2)c(F)c1` (stereo not drawn) [Example 548] registered a melting point of 90 °C. Moreover, the Ki or IC50 activity class in data set [1] is < 30 nM.

`CN1CCC(OC(c2ccc3c(c2)OCCO3)c2nc3ccccc3[nH]2)CC1` (stereo not drawn) [Example 300, 2-[(2,3-dihydrobenzo[1,4]dioxin-6-yl)(1-methylpiperidin-4-yloxy)methyl]-1H-benzimidazole] registered a melting point of 203 °C. Besides, the Ki or IC50 activity class in data set [1] is < 300 nM.

On to `CN1CCC(OC(c2nc3ccccc3[nH]2)c2ccc(Cl)cc2O)CC1` (stereo not drawn) [Example 585], for which the melting point stood at 142 °C. The Ki or IC50 activity class in data set [1] was < 30 nM.

Consider `Cc1ccc(C(OC2CCN(C)CC2)c2nc3ccccc3[nH]2)cc1` (stereo not drawn) [Example 177, 2-[(1-methylpiperidin-4-yloxy)-p-tolyl-methyl]-1H-benzimidazole], for which the melting point was 102 °C. Further, the Ki or IC50 activity class in data set [1] is < 300 nM.

For the compound `CN1CCC(OC(c2nc3ccccc3[nH]2)c2cccc(SCCN)c2F)CC1` (stereo not drawn) [Example 352, 2-{3-[(1H-benzimidazol-2-yl)(1-methylpiperidin-4-yloxy)methyl]-2-fluorophenylsulfanyl}ethylamine], the melting point was 204 °C. Moreover, the Ki or IC50 activity class in data set [1] was < 300 nM.

Regarding `CN1CCC(OC(c2ccc(Br)cc2)c2nc3ccccc3[nH]2)CC1` (stereo not drawn) [Example 204, 2-[(4-bromophenyl)(1-methylpiperidin-4-yloxy)methyl]-1H-benzimidazole], the melting point was found to be 122 °C. The Ki or IC50 activity class in data set [1] is < 300 nM.

Consider `CSc1ccc(O)c(C(OC2CCN(C)CC2)c2nc3ccccc3[nH]2)c1` (stereo not drawn) [Example 587], for which the melting point stood at 138 °C. Also, the Ki or IC50 activity class in data set [1] is < 30 nM.

For the compound `CN1CCC(OC(c2cccc(C#CCCCNC(=N)NC(=O)OC(C)(C)C)c2)c2nc3ccccc3s2)CC1` (stereo not drawn) [Example 339, N-tert-butoxycarbonyl-N′-(5-{3-[(benzothiazol-2-yl)(1-methylpiperidin-4-yloxy)methyl]phenyl}pent-5-ynyl)guanidine], the melting point turned out to be 125 °C. Moreover, the Ki or IC50 activity class in data set [1] was < 300 nM.

For the compound `Cc1cc(O)c(C(OC2CCN(C)CC2)c2nc3ccccc3[nH]2)cc1F` (stereo not drawn) [Example 613], the melting point amounted to 102 °C. In data set [1], the Ki or IC50 activity class is < 30 nM.

For `Cc1ccc(C(OC2CCN(C)CC2)c2nc3ccccc3[nH]2)c(O)c1` (stereo not drawn) [Example 574], the melting point was 145 °C. Moreover, in data set [1], the Ki or IC50 activity class is < 30 nM.

For `CC(C)CCOc1cccc(C(NC2CCN(C)CC2)c2nc3ccccc3[nH]2)c1` (stereo not drawn) [Example 68, {(1H-benzimidazol-2-yl)[3-(3-methylbutoxy)phenyl]methyl}(1-methylpiperidin-4-yl)amine], the melting point is 70 °C. In addition, in data set [1], the Ki or IC50 activity class was < 300 nM.

In turn, `CN1CCC(OC(c2nc3ccccc3[nH]2)c2cc3c(cc2O)CCC3)CC1` (stereo not drawn) [Example 602] displayed a melting point of 152 °C. Besides, the Ki or IC50 activity class in data set [1] was < 300 nM.

In the case of `COc1cccc(C(OC2CCN(C)CC2)c2nc3ccccc3[nH]2)c1O` (stereo not drawn) [Example 592], the melting point was 112 °C. The Ki or IC50 activity class in data set [1] is < 300 nM.

`CN1CCC(OC(c2ccc(C(F)(F)F)cc2)c2nc3ccccc3[nH]2)CC1` (stereo not drawn) [Example 537] showed a melting point of 86 °C. Also, in data set [1], the Ki or IC50 activity class is < 1000 nM.

Regarding `CN1CCC(NC(c2cccc(-c3ccco3)c2)c2nc3ccccc3[nH]2)CC1` (stereo not drawn) [Example 144, [(1H-benzimidazol-2-yl)(3-furan-2-ylphenyl)methyl](1-methylpiperidin-4-yl)amine], the melting point came to 108 °C. For the same compound, in data set [1], the Ki or IC50 activity class is < 30 nM.

`COc1ccc(-c2cccc(C(NC3CCN(C)CC3)c3nc4ccccc4[nH]3)c2)cc1` (stereo not drawn) [Example 222, [(1H-benzimidazol-2-yl)(4′-methoxy-biphenyl-3-yl)methyl](1-methylpiperidin-4-yl)amine] showed a melting point of 110 °C. Moreover, in data set [1], the Ki or IC50 activity class is < 300 nM.

As for `CN1CCC(OC(c2nc3ccccc3[nH]2)c2cc(F)c(F)cc2O)CC1` (stereo not drawn) [Example 583], the melting point came to 198 °C. In data set [1], the Ki or IC50 activity class is < 300 nM.

In the case of `CN1CCC(COC(c2cccc(Br)c2)c2nc3ccccc3[nH]2)C1` (stereo not drawn) [Example 414, 2-[(3-bromo-phenyl)(1-methylpyrrolidin-3-ylmethoxy)methyl]-1H-benzimidazole], the melting point came out at 61 °C. Also, the Ki or IC50 activity class in data set [1] was < 300 nM.

Consider `Cc1cccc(C(OC2CCN(C)CC2)c2nc3ccccc3[nH]2)c1` (stereo not drawn) [Example 164, 2-[(1-methylpiperidin-4-yloxy)(m-tolyl)methyl]-1H-benzimidazole], for which the melting point worked out at 119 °C. Besides, in data set [1], the Ki or IC50 activity class is < 300 nM.

On to `COc1ccc(F)c(C(OC2CCN(C)CC2)c2nc3ccccc3[nH]2)c1F` (stereo not drawn) [Example 534, 2-[(2,6-difluoro-3-methoxyphenyl)(1-methylpiperidin-4-yloxy)methyl]-1H-benzimidazole], for which the melting point was determined as 185 °C. Moreover, the Ki or IC50 activity class in data set [1] is < 300 nM.

Turning to `CN1CCC(OC(c2cccc(OCCN)c2)c2nc3ccccc3[nH]2)CC1` (stereo not drawn) [Example 291, 2-{3-[(1H-benzimidazol-2-yl)(1-methylpiperidin-4-yloxy)methyl]phenoxy}ethylamine], the melting point was found to be 90 °C. In addition, the Ki or IC50 activity class in data set [1] was < 300 nM.

Compound `Cc1c(F)ccc(C(OC2CCN(C)CC2)c2nc3ccccc3[nH]2)c1O` (stereo not drawn) [Example 623] had a melting point of 97 °C. Further, the Ki or IC50 activity class in data set [1] is < 30 nM.

`Cc1cc(F)cc(C(OC2CCN(C)CC2)c2nc3ccccc3[nH]2)c1O` (stereo not drawn) [Example 607] registered a melting point of 111 °C. The Ki or IC50 activity class in data set [1] is < 1000 nM.

`CCOc1cccc(C(NC2CCN(C)CC2)c2nc3ccccc3[nH]2)c1` (stereo not drawn) [Example 83, [(1H-benzimidazol-2-yl)(3-ethoxyphenyl)methyl](1-methylpiperidin-4-yl)amine] came in with a melting point of 74 °C. Besides, the Ki or IC50 activity class in data set [1] was < 300 nM.

With `CN1CCC(NC(c2cccnc2)c2nc3ccccc3s2)CC1` (stereo not drawn) [Example 52, (benzothiazol-2-ylpyridin-3-ylmethyl)(1-methylpiperidin-4-yl)amine], the melting point was found to be 109 °C. In addition, in data set [1], the Ki or IC50 activity class was < 1000 nM.

`CCCOc1cccc(C(OC2CCN(C)CC2)c2nc3ccccc3[nH]2)c1` (stereo not drawn) [Example 49, 2-[(1-methylpiperidin-4-yloxy)(3-propoxyphenyl)methyl]-1H-benzimidazole]: the melting point worked out at 135 °C. For the same compound, the Ki or IC50 activity class in data set [1] is < 1000 nM.

`CSc1cccc(C(NC2CCN(C)CC2)c2nc3ccccc3[nH]2)c1` (stereo not drawn) [Example 75, [(1H-benzimidazol-2-yl)(3-methylsulfanylphenyl)methyl](1-methylpiperidin-4-yl)amine] registered a melting point of 166 °C. Further, the Ki or IC50 activity class in data set [1] was < 30 nM.

For `CN1CCC(OC(c2cccc(SCCNC(=N)NC(=O)OC(C)(C)C)c2)c2nc3ccccc3s2)CC1` (stereo not drawn) [Example 304, N-tert-butoxycarbonyl-N′-(2-{3-[(benzothiazol-2-yl)(1-methylpiperidin-4-yloxy)methyl]phenylsulfanyl}ethyl)guanidine], the melting point was 110 °C. Moreover, the Ki or IC50 activity class in data set [1] is < 30 nM.

`CN1CCC(OC(c2nc3ccccc3[nH]2)c2cccc(-c3ccccc3)c2O)CC1` (stereo not drawn) [Example 615] came in with a melting point of 129 °C. In addition, in data set [1], the Ki or IC50 activity class was < 300 nM.

Values taken from US8802664B2 (Bioproject, priority 2010, dated 2014).
